The record followed here is publication PMC5706701, “Development of a homogenous high-throughput assay for inositol hexakisphosphate kinase 1 activity” (PLoS ONE, 2017).

Structures can show the parent of a compound that is named as a salt.

The target in this assay is T1, Human IP6K1 (Homo sapiens, UniProt Q92551).
T1 construct: GST (N, cleaved yes); made in house; host or cells: C43 E. coli, pGEX-6P-2
Briefly: IP6K1 high-throughput screen of the Sigma LOPAC (ADP-Glo Max, single point).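 Also: final compound concentration 10µM in 5% DMSO.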 In kind it is biochemical.

[1] abbreviates: Sigma LOPAC single-point screen, ADP-Glo Max raw signal per well.
The mark [2] stands for this setting: Sigma LOPAC single-point screen, Z-score from plate average and StDev.
Setting [3] is: LOPAC single-point screen, ADP-Glo Max luminescence raw signal per well.
[4] abbreviates: LOPAC single-point screen, Z-score from plate average and StDev.
Where [5] appears, read: LOPAC single-point screen, ADP-Glo Max raw signal per well.
Where [6] appears, read: LOPAC single-point screen, Z-score from raw signal with plate average and StDev.
[7] abbreviates: LOPAC single-point screen, Z-score relative to plate average and StDev.
Setting [8] is: LOPAC single-point screen, Z-score against plate average and StDev.

T1 sequence (Q92551 whole entry): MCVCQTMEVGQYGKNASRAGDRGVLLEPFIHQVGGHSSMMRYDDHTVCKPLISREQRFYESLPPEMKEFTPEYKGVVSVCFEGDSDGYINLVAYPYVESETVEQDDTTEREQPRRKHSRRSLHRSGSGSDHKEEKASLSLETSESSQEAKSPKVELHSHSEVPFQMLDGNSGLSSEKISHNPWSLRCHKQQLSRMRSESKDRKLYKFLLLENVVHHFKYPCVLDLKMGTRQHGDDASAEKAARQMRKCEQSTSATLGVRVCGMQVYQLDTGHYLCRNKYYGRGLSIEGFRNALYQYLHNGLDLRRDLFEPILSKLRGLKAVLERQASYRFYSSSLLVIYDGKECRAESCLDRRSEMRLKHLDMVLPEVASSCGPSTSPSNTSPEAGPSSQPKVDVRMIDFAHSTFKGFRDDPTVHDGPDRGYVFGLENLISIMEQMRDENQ

Regarding `Cl.c1ccc(CN2CCC3(CCCc4ccccc43)CC2)cc1` [L-687,384 hydrochloride], the “Raw Signal” value under setting [1] is on record as 58533. The same molecule displayed a Z-score under setting [2] of 0.6955.
As for `NC(N)=Nc1ccc2[nH]c3c(c2c1)C[C@@]1(O)[C@H]2Cc4ccc(O)c5c4[C@@]1(CCN2CC1CC1)[C@H]3O5.O=C(O)C(F)(F)F.O=C(O)C(F)(F)F`, under setting [3], the “Raw Signal” value is 65830. The molecule further displayed a Z-score under setting [4] of 2.166.
Turning to `Cc1oncc1C(=O)Nc1ccc(C(F)(F)F)cc1` [Leflunomide], under setting [3], the “Raw Signal” value is 65933. Under setting [4], the Z-score amounted to 1.939.
`COC(=O)Nc1nc2ccc(C(=O)c3cccs3)cc2[nH]1` [Nocodazole]: under setting [1], the “Raw Signal” value stood at 59128. Under setting [2], this molecule yielded a Z-score of 0.7955.
`CC(C)c1ccc2c(c1)c(SC(C)(C)C)c(CC(C)(C)C(=O)O)n2Cc1ccc(Cl)cc1` [MK-886]: the “Raw Signal” value under setting [5] is recorded as 53257. This molecule also came in with a Z-score under setting [6] of -0.191.
Consider `CN1C[C@H](C(=O)N[C@]2(C)O[C@@]3(O)[C@@H]4CCCN4C(=O)[C@H](Cc4ccccc4)N3C2=O)C[C@@H]2c3cccc4[nH]cc(c34)C[C@H]21` [Dihydroergotamine methanesulfonate], for which, under setting [3], the “Raw Signal” value turned out to be 48691. For the same molecule, under setting [7], the Z-score was -1.315.
Regarding `O=C1Cc2c([nH]c3ccc(Br)cc23)-c2ccccc2N1` [Kenpaullone], the “Raw Signal” value under setting [3] was found to be 65095. Further, the Z-score under setting [4] is 1.798.
As to `CC(=O)O.NC(=NCCC[C@H](N)C(=O)O)NO` [NG-Hydroxy-L-arginine acetate], the “Raw Signal” value under setting [5] turned out to be 53960. Further, the Z-score under setting [6] is recorded as -0.2451.
In the case of `CC(=O)OCC1=C(C(=O)[O-])N2C(=O)[C@@H](NC(=O)CCC[C@@H](N)C(=O)[O-])[C@H]2SC1.[Zn+2]` [Cephalosporin C zinc salt], the “Raw Signal” value under setting [5] was 57645. For the same molecule, the Z-score under setting [8] is -0.04722.
For `Cl.NCCCCNS(=O)(=O)c1ccc2c(Cl)cccc2c1`, the “Raw Signal” value under setting [5] amounted to 59537. The molecule further yielded a Z-score under setting [8] of 0.286.
`Cl.Cl.Clc1cccc(N2CCNCC2)c1`: under setting [1], the “Raw Signal” value is given as 60295. The molecule further displayed a Z-score under setting [2] of 0.4195.
With `CCCCCCCCCC[Si](C)(C)CCC(=O)NC(Cc1ccc(C)cc1)c1ccccc1` (stereo not drawn) [Sandoz 58-035], the “Raw Signal” value under setting [5] is on record as 56427. Under setting [6], this molecule had a Z-score of -0.2617.
Take `CCCn1c(=O)c2[nH]c(-c3ccc(OCC(=O)Nc4ccc(C#N)cc4)cc3)nc2n(CCC)c1=O` [MRS 1754]: the “Raw Signal” value under setting [3] was 66198. Also, the Z-score under setting [4] worked out at 1.983.
As for `Cc1cccc(C)c1OCC(C)N.Cl` (stereo not drawn) [Mexiletene hydrochloride], under setting [3], the “Raw Signal” value was determined as 50431. Under setting [7], the Z-score is given as -0.6658.
Take `CC(C)(C)NCC(O)COc1cccc2[nH]c(=O)[nH]c12.Cl` (racemic) [(±)-CGP-12177A hydrochloride]: the “Raw Signal” value under setting [1] stood at 57688. The Z-score under setting [2] was 0.512.
As to `N#CC(C#N)=Cc1ccc(O)c(O)c1` [Tyrphostin 23], under setting [3], the “Raw Signal” value is on record as 48444. The molecule also had a Z-score under setting [7] of -1.473.
For `Cc1nc(-c2ccc(-c3ccc(C(=O)N4CCc5cc6c(cc54)C4(CCN(C)CC4)CO6)cc3)c(C)c2)no1.Cl` [SB 224289 hydrochloride], under setting [1], the “Raw Signal” value was 58823. Also, the Z-score under setting [2] was 0.5438.
As to `Clc1ccc(C(c2ccccc2Cl)C(Cl)Cl)cc1` (stereo not drawn), the “Raw Signal” value under setting [5] is 59387. Under setting [8], this molecule returned a Z-score of 0.2596.
Take `CCSC(=N)Nc1ccc(C(F)(F)F)cc1.Cl` [TFPI hydrochloride]: under setting [5], the “Raw Signal” value was 53926. The Z-score under setting [6] is -0.4076.
In the case of `COc1ccccc1N1CCNCC1.Cl`, the “Raw Signal” value under setting [5] is 57311. Besides, the Z-score under setting [8] was 0.2501.
With `Cc1ccccc1/C=C/C1=NCCN1` [Metrazoline oxalate], the “Raw Signal” value under setting [3] amounted to 51543. This molecule also came in with a Z-score under setting [7] of -0.479.
